Data as given in US10493118B2, “Triterpenoid obtainable from hedera helix for treatment of neurodegenerative diseases” (Macau University of Science and Technology, priority 2016, dated 2019).

Key:
[1] = test system: GFP-LC3 transfected Atg7+/+ and Atg7−/− MEFs; experiment: GFP-LC3 puncta formation in ATG7 wild-type and ATG7 deficient MEFs; assay type: cell-based, mouse; conditions: α-hederin 12 or 24 μM, hederagenin 40, 60 or 80 μM, 24 h
Procedure: Immunocytochemistry and fluorescence microscopy: In brief, GFP-LC3 puncta formation was analyzed as described previously (Wu, A. G. et al. Int J Mol Sci 2013, 14:22618-22641). Firstly, cells were plated on top of coverslips inside a 6-well culture dish. After compounds treatments, cells were fixed with 4% paraformaldehyde for 20 min. FluorSave™ mounting media (Calbiochem, San Diego, Calif., USA) was used to mount the coverslips with cells before subjected to fluorescence microscopic analysis. The number of GFP-positive cells, and cells with GFP-LC3 puncta formation was examined and counted under the Nikon ECLIPSE 80i microscope by using 40× of magnification. In order to standardize the quantitation, the percentage of cells with autophagy induction was defined by counting the number of cells with punctate GFP-LC3 fluorescence in GFP-positive cells. A minimum of 1000 GFP-positive cells from 3 randomly selected fields were scored.

p-p70S6K = experiment: Western blot of p70S6K phosphorylation (downstream target of mTOR); assay type: cell-based; conditions: hederagenin 0-80 μM, α-hederin 0-24 μM, 24 h
Text: (§1) Protein extraction and Western blots: Cells were harvested by RIPA lysis buffer (Cell Signaling Technologies, Beverly, Mass., USA), and with the final protein concentrations measured by using Bradford reagent (Bio-Rad, Hercules, Calif., USA). After electrophoresis for protein band separation, proteins were transferred to the nitrocellulose membrane which was blocked with 5% non-fat dried milk immediately after protein transfer. Corresponding primary antibodies, followed by the addition of HRP-conjugated secondary antibodies, were incubated with the protein membrane with constant shaking. Visualization of protein band pattern was performed by using the ECL Western Blotting Detection Reagents (Invitrogen, Paisley, Scotland). Band intensities were quantified by using the software, ImageJ (ImageJ 1.46r; National Institutes of Health, Bethesda, Md., USA).

[2] = test system: PC-12 cells treated with 0.5 mM MPTP; experiment: Rescue from MPTP-induced cell death in PC-12 cells (MTT, Annexin V flow cytometry); assay type: cell-based; conditions: cell density, MTT assay and flow cytometry
Procedure: (§2) Cytotoxicity Assays and Flow Cytometry: Cell viability was measured by using the MTT method (3-[4,5-dimethylthiazol-2-yl]-2,5-diphenyl tetrazolium bromide) as described previously (Wu, A. G. et al. Int J Mol Sci 2013, 14:22618-22641). Absorbance (OD) of cell samples was obtained by spectrophotometer at 570 nm. The percentage of cell viability was calculated by using the formula: cell viability (%)=cells numbertreated/cells numberDMSO control×100. All MTT data were calculated from three independent experiments. Cell viability was also measured by flow cytometry using the Annexin V staining kit (BD Biosciences, San Jose, Calif., USA). In brief, PC-12 cells treated with hederagenin and α-hederin were analyzed by multiparametric flow cytometry using FITC-Annexin V and/or propidium iodide staining (BD Biosciences, San Jose, Calif., USA) by following manufacturer's instructions. Flow cytometry was then carried out using a FACSCalibur flow cytometer (BD Biosciences). Data acquisition and analysis were performed with CellQuest (BD Biosciences).

LC3-II [3] = experiment: Western blot of LC3 conversion (LC3-II) in PC-12 cells; assay type: cell-based; conditions: for protein level of LC3-II with AMPK inhibitor compound C (CC): 60 μM hederagenin or 18 μM α-hederin with 5 μM CC; for protein level of LC3-II with addition of 3-MA: 60 μM hederagenin or 18 μM α-hederin with 5 mM 3-MA; for rate of LC3-II formation with lysosomal protease inhibitors (autophagic flux): 60 μM hederagenin or 18 μM α-hederin with E64d and pepstatin A (10 μg/mL), compared with compounds alone; for protein level of LC3-II: PC-12 cells, various durations and concentrations
LC3-II [4] = experiment: Western blot of LC3-II in ATG7+/+ and ATG7−/− MEFs; assay type: cell-based, mouse; conditions: 24 h
Text: as §1

PC-12 cells = experiment: MTT cytotoxicity assay in PC-12 cells; assay type: cell-based; conditions: for IC50: MTT assay for 48 h
Procedure: (§3) Cytotoxicity Assays: Cell viability was measured by using the MTT method (3-[4,5-dimethylthiazol-2-yl]-2,5-diphenyl tetrazolium bromide) as described previously (Wu, A. G. et al. Int J Mol Sci 2013, 14:22618-22641). Absorbance (OD) of cell samples was obtained by spectrophotometer at 570 nm. The percentage of cell viability was calculated by using the formula: cell viability (%)=cells numbertreated/cells numberDMSO control×100. All MTT data were calculated from three independent experiments.
as §3, with “experiments. Cell viability was also measured by flow cytometry using the Annexin V staining kit (BD Biosciences, San Jose, Calif., USA).” for “experiments.”
as §2, with “Data acquisition and analysis were performed with CellQuest (BD Biosciences).” left out

CC1(C)CC[C@]2(C(=O)O)CC[C@]3(C)C(=CC[C@@H]4[C@@]5(C)CC[C@H](O)[C@@](C)(CO)[C@@H]5CC[C@]43C)[C@@H]2C1 [hederagenin]
GFP-LC3-II puncta formation in ATG7-wild type MEFs [1]: significantly increase the GFP-LC3-II puncta formation
phosphorylation of p70S6K (p-p70S6K): reduced phosphorylation of p70S6K
rescue from MPTP-induced cell death [2]: rescue cells from MPTP-induced cell death
protein level of LC3-II with AMPK inhibitor compound C (CC) (LC3-II [3]): significant reduction in protein level of LC3-II
protein level of LC3-II with addition of 3-MA (LC3-II [3]): decreased protein level of LC3-II
rate of LC3-II formation with lysosomal protease inhibitors (autophagic flux) (LC3-II [3]): significantly increase the rate of LC3-II formation
protein level of LC3-II (LC3-II [3]): increase in the protein level of LC3-II via a dose- and time-dependent manner
protein expression of LC3-II in ATG7+/+ MEFs (LC3-II [4]): significant increased protein expression of LC3-II
IC50 (PC-12 cells; Rattus norvegicus): > 100 µM

C[C@@H]1O[C@@H](O[C@H]2[C@H](O[C@H]3CC[C@@]4(C)[C@@H](CC[C@]5(C)[C@@H]4CC=C4[C@@H]6CC(C)(C)CC[C@]6(C(=O)O)CC[C@]45C)[C@]3(C)CO)OC[C@H](O)[C@@H]2O)[C@H](O)[C@H](O)[C@H]1O [α-hederin]
GFP-LC3-II puncta formation in ATG7-wild type MEFs [1]: significantly increase the GFP-LC3-II puncta formation
phosphorylation of p70S6K (p-p70S6K): reduced phosphorylation of p70S6K
rescue from MPTP-induced cell death [2]: rescue cells from MPTP-induced cell death
protein level of LC3-II with AMPK inhibitor compound C (CC) (LC3-II [3]): significant reduction in protein level of LC3-II
protein level of LC3-II with addition of 3-MA (LC3-II [3]): decreased protein level of LC3-II
rate of LC3-II formation with lysosomal protease inhibitors (autophagic flux) (LC3-II [3]): significantly increase the rate of LC3-II formation
protein level of LC3-II (LC3-II [3]): increase in the protein level of LC3-II via a dose- and time-dependent manner
protein expression of LC3-II in ATG7+/+ MEFs (LC3-II [4]): significant increased protein expression of LC3-II
IC50 (PC-12 cells): 26.5 µM
cytotoxicity at most effective concentration (PC-12 cells; hederagenin 80 μM, α-hederin 24 μM): lack of obvious cytotoxicity
